Test results published in ChEMBL document CHEMBL4321837, “Discovery of Potent and Orally Effective Dual Janus Kinase 2/FLT3 Inhibitors for the Treatment of Acute Myelogenous Leukemia and Myeloproliferative Neoplasms” (J Med Chem, 2019).
Calls of active or inactive are those of the source. The calls are words filed in the database; no cut-off is given here.

Experiments:
JAK3/JAK1 = JAK3/JAK1 (Homo sapiens, UniProt P23458+P52333); experiment: Inhibition of JAK1/JAK3 in human PBMC cells assessed as reduction in IL-2-induced STAT5 phosphorylation by flow cytometry; assay type: cell-based
IEC-6 = experiment: Cytotoxicity against rat IEC-6 cells assessed as cell viability after 72 hrs by MTT assay; assay type: cell-based; conditions: iec-6, 72 h
[1] = target: Tyrosine-protein kinase JAK2 (Homo sapiens, UniProt O60674); experiment: Inhibition of human JAK2 (808 to end residues) assessed as residual activity at 100 nM using KTFCGTPEYLAP as substrate after 40 mins in presence of [gamma33P]-ATP by scintillation counting based radiometric assay relative to control
[2] = target: Receptor-type tyrosine-protein kinase FLT3 (Homo sapiens) (UniProt P36888); experiment: Inhibition of human FLT3 (564 to end residues) assessed as residual activity at 100 nM using EAIYAAPFAKKK as substrate after 40 mins in presence of [gamma33P]-ATP by scintillation counting based radiometric assay relative to control
MV4-11 [3] = experiment: Inhibition of JAK2/FLT3 ITD mutant in human MV4-11 cells assessed as reduction in STAT5 phosphorylation at 0.2 uM after 2 hrs by Western blot analysis; assay type: cell-based
[4] = target: Tyrosine-protein kinase Lyn (Homo sapiens, UniProt P07948); experiment: Inhibition of recombinant full length human LYN using poly(Glu, Tyr) 4:1 as substrate incubated for 40 mins in presence of [gamma33P]-ATP by scintillation counting based radiometry assay
MV4-11 [5] = experiment: Induction of cell cycle arrest in human MV4-11 cells assessed as accumulation at G2/M phase at 0.05 uM after 24 hrs by propidium iodide staining based flow cytometry analysis (reference value: 15.4%); assay type: functional
[6] = target: T1, Tyrosine-protein kinase JAK1 (Homo sapiens, UniProt P23458); experiment: Inhibition of human JAK1 (866 to end residues) assessed as residual activity at 100 nM using GEEPLYWSFPAKK as substrate after 40 mins in presence of [gamma33P]-ATP by scintillation counting based radiometric assay relative to control
MV4-11 [7] = experiment: Induction of apoptosis in human MV4-11 cells assessed as necrotic cells at 0.4 uM after 24 hrs by Annexin V FITC/PI staining based flow cytometry analysis (reference value: 0.18%); assay type: functional
MV4-11 [8] = experiment: Induction of apoptosis in human MV4-11 cells assessed as late apoptotic cells at 0.05 uM after 24 hrs by Annexin V FITC/PI staining based flow cytometry analysis (reference value: 1.38%); assay type: functional
MV4-11 [9] = experiment: Antitumor activity against FLT3-ITD positive human MV4-11 cells xenografted in NOD/SCID mouse assessed as tumor growth inhibition at 60 mg/kg, po qd for 14 days measured every 2 days for 14 days by caliper method relative to control; assay type: functional; conditions: MV4-11, po, read-out: TGI
MDA-MB-453 = experiment: Antiproliferative activity against human MDA-MB-453 cells assessed as reduction in cell growth after 72 hrs by MTT assay; assay type: functional, cell-based
MV4-11 [10] = experiment: Antitumor activity against FLT3-ITD-positive human MV4-11 cells xenografted in NOD/SCID mouse assessed as tumor growth inhibition at 30 mg/kg, po qd for 14 days measured every 2 days for 14 days by caliper method relative to control; assay type: functional; conditions: MV4-11, po, read-out: TGI
MV4-11 [11] = experiment: Induction of cell cycle arrest in human MV4-11 cells assessed as accumulation at G2/M phase at 0.005 uM after 24 hrs by propidium iodide staining based flow cytometry analysis (reference value: 15.4%); assay type: functional
MV4-11 [12] = experiment: Induction of cell cycle arrest in human MV4-11 cells assessed as accumulation at G2/M phase at 0.01 uM after 24 hrs by propidium iodide staining based flow cytometry analysis (reference value: 15.4%); assay type: functional
[13] = target: T1, Tyrosine-protein kinase JAK1; experiment: Inhibition of human JAK1 (866 to end residues) GEEPLYWSFPAKK as substrate after 40 mins in presence of [gamma33P]-ATP by scintillation counting based radiometric assay
MV4-11 [14] = experiment: Induction of apoptosis in human MV4-11 cells assessed as viable cells at 0.8 uM after 24 hrs by Annexin V FITC/PI staining based flow cytometry analysis (reference value: 96.3%); assay type: functional; conditions: MV4-11, 24 h, read-out: Activity
CDK6/cyclin D3 = CDK6/cyclin D3 (Homo sapiens, UniProt Q00534); experiment: Inhibition of recombinant full length human CDK6/CyclinD3 using histone H1 as substrate incubated for 30 mins in presence of [gamma33P]-ATP by scintillation counting based radiometry assay; assay type: protein-complex assay
HUVEC = experiment: Cytotoxicity against HUVEC assessed as cell viability after 72 hrs by MTT assay; assay type: cell-based; conditions: human
Cytochrome P450 2D6 = Cytochrome P450 2D6 (Homo sapiens, UniProt P10635); experiment: Inhibition of CYP2D6 (unknown origin); assay type: ADME
HCT-116 = experiment: Antiproliferative activity against human HCT116 cells assessed as reduction in cell growth after 72 hrs by MTT assay; assay type: functional, cell-based
MV4-11 [15] = experiment: Antiproliferative activity against FLT3-ITD-positive human MV4-11 cells assessed as reduction in cell growth after 72 hrs by MTT assay; assay type: functional, cell-based; conditions: MV4-11, 72 h
MOLM-13 = experiment: Antiproliferative activity against FLT3-ITD-positive human MOLM13 cells assessed as reduction in cell growth after 72 hrs by MTT assay; assay type: functional, cell-based; conditions: MOLM-13, 72 h
MV4-11 [16] = experiment: Induction of cell cycle arrest in human MV4-11 cells assessed as accumulation at S phase at 0.005 uM after 24 hrs by propidium iodide staining based flow cytometry analysis (reference value: 30.11%); assay type: functional
[17] = target: Vascular endothelial growth factor receptor 3 (Homo sapiens, UniProt P35916); experiment: Inhibition of recombinant human FLT4 (800 to 1297 residues) using poly(Glu:Tyr) as substrate incubated for 30 mins in presence of [gamma33P]-ATP by scintillation counting based radiometry assay
[18] = Toxicity in NOD/SCID mouse xenografted with human SET2 cells overexpressing JAK2 V617F mutant assessed as animal survival at 30 to 60 mg/kg, po qd for 18 days; assay type: organism-based; conditions: in vivo
[19] = target: Voltage-gated inwardly rectifying potassium channel KCNH2 (Homo sapiens, UniProt Q12809); experiment: Inhibition of human ERG
[20] = target: T1, Tyrosine-protein kinase JAK1; experiment: Inhibition of JAK1 in human PBMC cells assessed as reduction in IL-6-induced STAT3 phosphorylation by flow cytometry; assay type: cell-based
[21] = Toxicity in NOD/SCID mouse xenografted with FLT3-ITD-positive human MV4-11 cells assessed as body weight at 30 to 60 mg/kg, po qd for 14 days; assay type: organism-based; conditions: in vivo, 336 h
[22] = Toxicity in NOD/SCID mouse xenografted with FLT3-ITD-positive human MV4-11 cells assessed as animal survival at 30 to 60 mg/kg, po qd for 14 days; assay type: organism-based; conditions: in vivo
[23] = Anti-myelofibrosis activity against mouse BAF3(transformed) cells harboring with JAK2 V617F mutant allografted in NOD/SCID mouse assessed as reduction in spleen weight at 60 mg/kg, po qd for 20 days measured on day 25 relative to control; assay type: functional

T1 sequence (P23458 whole entry): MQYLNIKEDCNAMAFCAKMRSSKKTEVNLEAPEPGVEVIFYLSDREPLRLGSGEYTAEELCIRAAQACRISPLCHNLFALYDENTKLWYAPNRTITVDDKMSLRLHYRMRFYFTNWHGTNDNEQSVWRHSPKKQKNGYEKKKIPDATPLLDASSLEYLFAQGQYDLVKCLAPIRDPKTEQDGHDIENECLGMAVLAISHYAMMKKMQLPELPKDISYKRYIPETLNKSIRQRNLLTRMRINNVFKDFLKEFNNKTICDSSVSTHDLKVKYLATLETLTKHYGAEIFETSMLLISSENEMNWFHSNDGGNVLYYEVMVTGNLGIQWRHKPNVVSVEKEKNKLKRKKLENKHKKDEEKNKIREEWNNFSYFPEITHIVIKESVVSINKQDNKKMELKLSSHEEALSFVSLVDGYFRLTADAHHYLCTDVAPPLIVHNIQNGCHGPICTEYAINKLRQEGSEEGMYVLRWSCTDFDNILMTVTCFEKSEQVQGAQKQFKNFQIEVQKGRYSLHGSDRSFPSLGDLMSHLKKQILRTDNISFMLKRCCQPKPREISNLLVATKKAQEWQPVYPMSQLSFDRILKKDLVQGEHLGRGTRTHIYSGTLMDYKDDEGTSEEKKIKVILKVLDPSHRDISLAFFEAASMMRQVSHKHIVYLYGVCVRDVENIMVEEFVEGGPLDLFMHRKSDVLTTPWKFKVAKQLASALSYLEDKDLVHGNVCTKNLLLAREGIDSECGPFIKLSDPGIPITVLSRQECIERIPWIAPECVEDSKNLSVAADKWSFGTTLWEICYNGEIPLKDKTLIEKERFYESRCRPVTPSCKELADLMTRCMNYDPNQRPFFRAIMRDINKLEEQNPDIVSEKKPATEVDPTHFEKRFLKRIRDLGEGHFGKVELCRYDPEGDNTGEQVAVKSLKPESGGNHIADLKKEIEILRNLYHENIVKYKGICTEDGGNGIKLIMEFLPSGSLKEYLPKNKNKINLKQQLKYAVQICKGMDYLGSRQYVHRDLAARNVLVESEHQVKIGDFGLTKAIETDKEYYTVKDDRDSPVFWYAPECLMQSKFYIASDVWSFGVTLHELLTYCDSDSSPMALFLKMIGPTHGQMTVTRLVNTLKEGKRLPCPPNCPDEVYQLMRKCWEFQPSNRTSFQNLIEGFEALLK
Chain of CDK6/cyclin D3 (P30281 whole entry): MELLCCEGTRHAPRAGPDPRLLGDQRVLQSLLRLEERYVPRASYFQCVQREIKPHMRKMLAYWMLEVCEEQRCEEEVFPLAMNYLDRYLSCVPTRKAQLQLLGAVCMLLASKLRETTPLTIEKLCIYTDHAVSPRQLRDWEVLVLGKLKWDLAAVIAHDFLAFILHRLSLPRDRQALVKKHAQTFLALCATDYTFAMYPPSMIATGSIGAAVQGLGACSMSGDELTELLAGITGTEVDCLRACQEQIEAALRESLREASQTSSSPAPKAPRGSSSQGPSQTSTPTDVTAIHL
Chain of CDK6/cyclin D3 (Q00534 whole entry): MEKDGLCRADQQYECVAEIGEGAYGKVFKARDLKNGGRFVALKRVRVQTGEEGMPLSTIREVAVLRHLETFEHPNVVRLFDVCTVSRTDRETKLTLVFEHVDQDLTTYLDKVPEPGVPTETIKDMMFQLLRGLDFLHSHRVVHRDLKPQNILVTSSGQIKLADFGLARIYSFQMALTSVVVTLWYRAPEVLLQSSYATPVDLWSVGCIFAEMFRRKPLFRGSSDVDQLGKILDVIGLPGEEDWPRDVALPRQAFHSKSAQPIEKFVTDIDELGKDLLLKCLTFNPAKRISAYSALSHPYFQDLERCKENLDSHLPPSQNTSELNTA
Chain of Tyrosine-protein kinase JAK2 (O60674 whole entry): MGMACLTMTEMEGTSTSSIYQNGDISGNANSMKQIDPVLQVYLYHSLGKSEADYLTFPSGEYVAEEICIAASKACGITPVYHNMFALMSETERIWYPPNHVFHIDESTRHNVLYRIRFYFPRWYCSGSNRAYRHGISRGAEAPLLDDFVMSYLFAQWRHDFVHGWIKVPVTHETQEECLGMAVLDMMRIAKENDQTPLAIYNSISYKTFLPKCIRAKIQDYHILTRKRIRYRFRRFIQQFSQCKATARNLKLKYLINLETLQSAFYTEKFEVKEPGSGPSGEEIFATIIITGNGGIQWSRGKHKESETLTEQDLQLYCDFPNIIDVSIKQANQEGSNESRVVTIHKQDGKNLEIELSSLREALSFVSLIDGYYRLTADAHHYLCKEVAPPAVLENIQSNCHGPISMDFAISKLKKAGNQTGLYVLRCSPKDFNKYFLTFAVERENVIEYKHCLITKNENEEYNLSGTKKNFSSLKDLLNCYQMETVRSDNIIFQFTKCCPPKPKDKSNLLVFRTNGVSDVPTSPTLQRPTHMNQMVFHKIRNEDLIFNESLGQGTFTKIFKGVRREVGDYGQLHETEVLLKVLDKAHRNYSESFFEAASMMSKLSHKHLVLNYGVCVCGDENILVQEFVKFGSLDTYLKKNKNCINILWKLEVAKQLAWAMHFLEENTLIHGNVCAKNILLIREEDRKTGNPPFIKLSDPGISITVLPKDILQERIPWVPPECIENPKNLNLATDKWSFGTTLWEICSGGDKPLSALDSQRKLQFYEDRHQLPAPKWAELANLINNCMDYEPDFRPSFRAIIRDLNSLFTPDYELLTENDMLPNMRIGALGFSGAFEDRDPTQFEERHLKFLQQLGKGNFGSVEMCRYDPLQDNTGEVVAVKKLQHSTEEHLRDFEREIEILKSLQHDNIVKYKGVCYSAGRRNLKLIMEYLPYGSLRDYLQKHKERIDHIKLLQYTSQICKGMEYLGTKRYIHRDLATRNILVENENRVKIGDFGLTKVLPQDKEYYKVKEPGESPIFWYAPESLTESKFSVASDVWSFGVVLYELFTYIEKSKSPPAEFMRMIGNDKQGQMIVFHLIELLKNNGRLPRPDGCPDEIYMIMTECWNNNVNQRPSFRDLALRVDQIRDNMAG
Chain of Receptor-type tyrosine-protein kinase FLT3 (Homo sapiens) (P36888 whole entry): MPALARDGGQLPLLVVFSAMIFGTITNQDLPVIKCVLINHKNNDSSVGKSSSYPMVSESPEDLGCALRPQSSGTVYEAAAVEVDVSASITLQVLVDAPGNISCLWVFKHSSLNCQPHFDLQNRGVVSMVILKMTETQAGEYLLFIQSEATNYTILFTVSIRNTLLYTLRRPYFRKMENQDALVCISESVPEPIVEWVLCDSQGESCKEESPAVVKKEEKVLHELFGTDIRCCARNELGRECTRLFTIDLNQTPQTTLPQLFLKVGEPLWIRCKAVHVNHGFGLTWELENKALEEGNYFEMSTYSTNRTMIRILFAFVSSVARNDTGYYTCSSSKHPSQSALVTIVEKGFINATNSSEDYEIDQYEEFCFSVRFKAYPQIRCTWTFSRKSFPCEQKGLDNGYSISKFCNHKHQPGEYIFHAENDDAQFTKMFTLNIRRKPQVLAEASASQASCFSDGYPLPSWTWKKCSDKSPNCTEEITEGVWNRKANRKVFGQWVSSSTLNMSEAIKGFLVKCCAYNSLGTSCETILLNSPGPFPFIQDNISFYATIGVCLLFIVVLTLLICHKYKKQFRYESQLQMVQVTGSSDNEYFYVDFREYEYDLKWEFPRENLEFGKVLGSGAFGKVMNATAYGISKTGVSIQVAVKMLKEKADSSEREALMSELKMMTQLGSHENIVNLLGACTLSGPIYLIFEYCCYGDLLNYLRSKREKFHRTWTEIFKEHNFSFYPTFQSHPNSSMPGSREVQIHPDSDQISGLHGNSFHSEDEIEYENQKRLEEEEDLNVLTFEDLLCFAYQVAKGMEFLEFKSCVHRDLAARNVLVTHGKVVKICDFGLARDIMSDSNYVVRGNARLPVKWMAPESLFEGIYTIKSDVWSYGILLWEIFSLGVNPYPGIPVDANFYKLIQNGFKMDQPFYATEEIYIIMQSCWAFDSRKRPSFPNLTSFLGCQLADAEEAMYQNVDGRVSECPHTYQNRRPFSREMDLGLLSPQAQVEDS
Chain of Voltage-gated inwardly rectifying potassium channel KCNH2 (Q12809 whole entry): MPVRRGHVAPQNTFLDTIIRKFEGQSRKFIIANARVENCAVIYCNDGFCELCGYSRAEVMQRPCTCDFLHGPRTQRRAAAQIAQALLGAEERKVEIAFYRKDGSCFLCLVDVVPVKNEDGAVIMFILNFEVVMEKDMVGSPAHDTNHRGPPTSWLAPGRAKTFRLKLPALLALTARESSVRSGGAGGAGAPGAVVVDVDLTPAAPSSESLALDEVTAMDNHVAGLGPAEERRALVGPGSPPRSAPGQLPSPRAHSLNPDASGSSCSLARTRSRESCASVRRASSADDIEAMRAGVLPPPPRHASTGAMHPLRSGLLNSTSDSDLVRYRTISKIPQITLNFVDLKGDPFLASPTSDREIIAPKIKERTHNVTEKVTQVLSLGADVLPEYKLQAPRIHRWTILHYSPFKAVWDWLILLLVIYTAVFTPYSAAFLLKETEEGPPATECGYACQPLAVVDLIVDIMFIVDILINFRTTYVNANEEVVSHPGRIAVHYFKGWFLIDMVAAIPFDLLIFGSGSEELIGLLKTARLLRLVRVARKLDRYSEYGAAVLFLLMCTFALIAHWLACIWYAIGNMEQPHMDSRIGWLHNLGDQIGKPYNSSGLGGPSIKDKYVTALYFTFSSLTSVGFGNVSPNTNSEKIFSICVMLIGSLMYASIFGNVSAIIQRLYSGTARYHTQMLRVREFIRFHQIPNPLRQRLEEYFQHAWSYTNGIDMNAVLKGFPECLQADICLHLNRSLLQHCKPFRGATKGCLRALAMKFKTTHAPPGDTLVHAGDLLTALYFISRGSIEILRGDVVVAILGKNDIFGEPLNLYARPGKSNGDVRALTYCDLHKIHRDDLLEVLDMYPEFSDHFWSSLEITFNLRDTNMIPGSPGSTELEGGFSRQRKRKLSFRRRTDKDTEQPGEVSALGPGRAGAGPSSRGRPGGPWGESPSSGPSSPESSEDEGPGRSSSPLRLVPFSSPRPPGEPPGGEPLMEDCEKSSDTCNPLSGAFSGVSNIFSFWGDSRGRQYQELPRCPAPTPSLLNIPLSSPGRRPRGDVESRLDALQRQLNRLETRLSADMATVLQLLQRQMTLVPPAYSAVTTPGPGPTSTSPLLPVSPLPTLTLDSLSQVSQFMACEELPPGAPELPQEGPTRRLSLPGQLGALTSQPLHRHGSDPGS

In the case of `Cc1cnc(Nc2ccc(N3CCC(N(C)CCO)CC3)c(F)c2)nc1-c1cnn(C(C)C)c1`, the IC50 (JAK3/JAK1) is reported as 112 nM, the Activity (IEC-6) is reported as “Non-Toxic” and the Activity [1] is reported as 0%. The Activity [2] was 4%, the inhibition (MV4-11 [3]) was “Active” and the IC50 [4] was 17 nM. The Activity (MV4-11 [5]) was 5.51%, the Activity [6] was 25% and the Activity (MV4-11 [7]) was 1.04%. The Activity (MV4-11 [8]) was 4.55%, the inhibition in vivo at 60 mg/kg (MV4-11 [9]) was 93% and the Activity (MDA-MB-453) was “Active”. For the same molecule, the inhibition in vivo at 30 mg/kg (MV4-11 [10]) was 58%, the Activity (MV4-11 [11]) was 15.4% and the Activity (MV4-11 [12]) was 11.8%. It also gave an IC50 [13] of 26 nM, a viability at 0.8 µM (MV4-11 [14]) of 46.4% and an IC50 (CDK6/cyclin D3) of 66 nM. For the same molecule, the Activity (HUVEC) was “Non-Toxic”, the IC50 (Cytochrome P450 2D6) was > 100000 nM and the Activity (HCT-116) was “Active”. It also gave an IC50 (MV4-11 [15]) of 5.3 nM, an IC50 (MOLM-13) of 72 nM and an Activity (MV4-11 [16]) of 28.22%. For the same molecule, the IC50 [17] was 8 nM, the survival at 432 h [18] was 100% and the IC50 [19] was 28000 nM. For the same molecule, the IC50 [20] was 94.2 nM, the Activity [21] was “Non-Toxic” and the survival at 336 h [22] was 100%. It also gave an inhibition in vivo at 60 mg/kg [23] of 59.5%.
